Measured values from ChEMBL document CHEMBL5604063, “ASAP - DENV-2 NS2B-NS3 protease fluorescence dose response” (2024).
“And” between values parts separate entries of the source, which are not always exact repeats. Equal entries are not always repeated.

Target: Genome polyprotein (dengue virus type 2, UniProt P29990)
Type: functional, Thailand/16681/1984

Chain of Genome polyprotein (P29990 1346-1475 limits assumed): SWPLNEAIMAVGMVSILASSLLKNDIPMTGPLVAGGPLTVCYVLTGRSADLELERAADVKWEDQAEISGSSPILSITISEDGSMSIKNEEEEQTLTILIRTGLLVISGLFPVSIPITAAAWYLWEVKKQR
Chain of Genome polyprotein (P29990 1476-2093 limits assumed): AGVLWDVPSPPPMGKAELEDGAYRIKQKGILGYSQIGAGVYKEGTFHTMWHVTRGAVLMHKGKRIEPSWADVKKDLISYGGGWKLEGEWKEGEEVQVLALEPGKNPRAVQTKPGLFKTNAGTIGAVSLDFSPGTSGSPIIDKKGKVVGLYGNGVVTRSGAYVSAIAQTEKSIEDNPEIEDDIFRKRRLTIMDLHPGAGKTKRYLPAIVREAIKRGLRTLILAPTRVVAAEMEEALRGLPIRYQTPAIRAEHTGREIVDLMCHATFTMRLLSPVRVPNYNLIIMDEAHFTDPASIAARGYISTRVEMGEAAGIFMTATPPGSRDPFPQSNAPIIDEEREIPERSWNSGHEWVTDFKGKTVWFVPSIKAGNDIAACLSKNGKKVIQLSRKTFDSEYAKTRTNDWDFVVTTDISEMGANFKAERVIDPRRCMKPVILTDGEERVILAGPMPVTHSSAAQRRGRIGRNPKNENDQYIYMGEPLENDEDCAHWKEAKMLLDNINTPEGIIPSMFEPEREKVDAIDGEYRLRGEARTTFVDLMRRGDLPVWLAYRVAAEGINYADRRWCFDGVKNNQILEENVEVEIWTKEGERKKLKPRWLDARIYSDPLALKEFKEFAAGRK

SMILES | IC50
Cc1ncsc1C(=O)N[C@H](C(=O)Nc1cccc(CN)c1)c1ccc(OCc2ccccc2)cc1 | > 99.5 µM
COc1ccc(F)cc1-c1ccc(S(=O)(=O)Nc2ccc(Cl)cc2C(=O)O)cc1 | 11.7 µM
CCn1c(=O)c(N2C[C@H]3CCC[C@H]2C3)nc2ccccc21 | > 99.5 µM
NCc1cccc(NC(=O)[C@H](NC(=O)C2CCC2)c2ccc(OCc3ccccc3)cc2)c1 | > 99.5 µM
O=C(O)c1cc2c(cc1NS(=O)(=O)c1ccc(F)cc1)CCC2 | > 99.5 µM
NCc1cccc(NC(=O)C[C@H](NC(=O)OCc2ccccc2)c2ccc(OC(F)(F)F)cc2)c1 | 42.9 µM and 44.6 µM
N[C@]12CCC[C@](C(=O)NCc3ccc4c(c3)CCNCC4)(CC1)C2 | > 99.5 µM
O=C(O)c1cc(F)c(F)c(F)c1NS(=O)(=O)c1ccc(Oc2ccccc2Cl)cc1 | 24.5 µM
NCc1cccc(NC(=O)C[C@H](NC(=O)OCc2ccccc2)c2ccc(Cl)c(Br)c2)c1 | 22.8 µM and 22.9 µM and 12.9 µM and 12.6 µM
O=C(Cn1ccnc(N2CC[C@H](CO)C2)c1=O)NCc1nccs1 | > 99.5 µM
NCc1cccc(NC(=O)[C@H](NC(=O)OCc2ccccc2)c2ccc(Br)c(Cl)c2)c1 | 11 µM and 8.42 µM and 6.79 µM and 9.88 µM and 12.5 µM and 8.05 µM
NCc1cccc(NC(=O)[C@H](NC(=O)OCc2ccccc2)c2ccc(Br)c(F)c2)c1 | 88.2 µM
CCn1ccnc(N2C[C@H](c3c[nH]c4ccccc34)[C@H](N3C(=O)c4ccccc4C3=O)C2)c1=O | > 99.5 µM
CC(C)Oc1ccccc1C(=O)N[C@H](C(=O)Nc1cccc(CN)c1)c1ccc(OCc2ccccc2)cc1 | 74.2 µM
O=C(O)c1cc(Cl)ccc1NS(=O)(=O)c1ccc(NC2CCNCC2)nc1 | > 99.5 µM
NCc1cccc(NC(=O)[C@H](NC(=O)OCc2ccccc2)c2ccc(Br)cc2F)c1 | 66 µM
NCc1cccc(CNC(=O)c2cc(Cl)cc(NC(=O)OCc3ccccc3)c2)c1 | > 99.5 µM
NCc1cccc(NC(=O)[C@H](NC(=O)OCc2ccccc2)c2cccc(-c3ccc(S(N)(=O)=O)cc3)c2)c1 | > 99.5 µM
CCn1c(=O)c(N2C[C@H]3C[C@@]3(C(F)F)C2)nc2ccccc21 | > 99.5 µM
Cn1cc(-c2cccc([C@H](NC(=O)OCc3ccccc3)C(=O)Nc3cccc(CN)c3)c2)cn1 | > 99.5 µM
COCc1cc(Cl)ccc1NS(=O)(=O)c1ccc(Oc2ccccc2Cl)cc1 | > 99.5 µM
CCN(C(=O)Cn1ccnc(N2CC[C@H](CO)C2)c1=O)C(C)C | > 99.5 µM
NCc1cccc(NC(=O)[C@H]2[C@H]3CCCC[C@H]3[C@@H]2NC(=O)OCc2ccccc2)c1 | 95.5 µM
CCn1c(=O)c(N2CC[C@H](c3nccn3C)C2)nc2ccccc21 | > 99.5 µM
Cc1nccn1-c1ccc(NS(=O)(=O)c2ccc(Cl)cc2C(=O)O)cc1F | > 99.5 µM

SMILES | IC50
CCOc1cccc(-c2ccc(S(=O)(=O)Nc3ccc(Cl)cc3C(=O)O)cc2)c1 | 4.25 µM and 6.13 µM
NCc1cccc(NC(=O)C[C@H](NC(=O)OCc2ccccc2)c2ccc(Cl)c(F)c2)c1 | 97.6 µM
Cn1cnc2c1CN(Cc1ccc3c(c1)CCNCC3)CC2 | > 99.5 µM
NCC1(NC(=O)[C@H](NC(=O)OCc2ccccc2)c2ccc(OCc3ccccc3)cc2)CCCCC1 | > 99.5 µM
Cn1ccnc1C(=O)N[C@H](C(=O)Nc1cccc(CN)c1)c1ccc(OCc2ccccc2)cc1 | > 99.5 µM
CCn1c(=O)c(N2C[C@H]3C[C@H]2CS(=O)(=O)C3)nc2ccccc21 | > 99.5 µM
CS(=O)(=O)c1ccc(-c2ccc(S(=O)(=O)Nc3ccc(Cl)cc3C(=O)O)cc2)cc1 | 33.5 µM
NCc1cccc(NC(=O)[C@H](NC(=O)OCc2ccccc2)c2cccc(-c3cncc(F)c3)c2)c1 | > 99.5 µM
CS(=O)(=O)c1ccc(-c2cccc([C@H](NC(=O)OCc3ccccc3)C(=O)Nc3cccc(CN)c3)c2)cc1 | 40 µM
CCC(C)(C)C(=O)N[C@H](C(=O)Nc1cccc(CN)c1)c1ccc(OCc2ccccc2)cc1 | > 99.5 µM
CCn1c(=O)c(N2CC[C@H](N3CCCC3=O)C2)nc2ccccc21 | > 99.5 µM
CCn1c(=O)c(N2CC[C@H](c3cnccn3)C2)nc2ccccc21 | > 99.5 µM
O=C(O)c1cc(Cl)ccc1NS(=O)(=O)c1ccc(-c2cccnc2)cc1 | 91.3 µM
CCn1c(=O)c(N2CC[C@]3(CCNC3=O)C2)nc2ccccc21 | > 99.5 µM
O=C(O)c1cc(Cl)ccc1S(=O)(=O)NC1CCC(N2CCCCC2=O)CC1 (configuration not stated) | > 99.5 µM
Cc1ccc(C(=O)N[C@H](C(=O)Nc2cccc(CN)c2)c2ccc(OCc3ccccc3)cc2)s1 | 97.7 µM
CS(=O)(=O)c1cncc(-c2cccc([C@H](NC(=O)OCc3ccccc3)C(=O)Nc3cccc(CN)c3)c2)c1 | 71.4 µM
NCc1cccc(NC(=O)[C@]2(NC(=O)OCc3ccccc3)COc3cc(Br)ccc32)c1 | > 99.5 µM
CCN1C[C@H]2C[C@@H]1CN2c1nc2ccccc2n(CC)c1=O | > 99.5 µM
Cc1cc(OCc2ccccc2)ccc1NS(=O)(=O)c1ccc(Cl)cc1C(=O)O | 27.1 µM
CCn1c(=O)c(N2CCC[C@H]2C(=O)NC2CC2)nc2ccccc21 | > 99.5 µM
CCn1c(=O)c(N2C[C@H]3COC[C@@]3(C)C2)nc2ccccc21 | > 99.5 µM
NCc1cccc(NC(=O)[C@H](NC(=O)OCc2ccccc2)c2cccc(C3=CCCOC3)c2)c1 | > 99.5 µM
CC(C)[C@@H]1[C@H](C(=O)Nc2cccc(CN)c2)CCN1C(=O)OCc1ccccc1 | > 99.5 µM
NCc1cccc(NC(=O)[C@H](NC(=O)C2CCCCC2)c2ccc(OCc3ccccc3)cc2)c1 | 17.6 µM and 20.7 µM and 12.3 µM

SMILES | IC50
Cn1ncc2cc(C(=O)N3CCC(NC(=O)[C@]4(C)CCC[C@H]4O)CC3)cc(O)c21 | > 99.5 µM
CCn1c(=O)c(N2CC[C@H](c3ccccc3)C2)nc2ccccc21 | > 99.5 µM
CCOC(=O)c1cc(C(=O)N[C@H](C(=O)Nc2cccc(CN)c2)c2ccc(OCc3ccccc3)cc2)n(C)n1 | 24.3 µM and 24.8 µM
Cc1occ(C(F)(F)F)c1C(=O)N[C@H](C(=O)Nc1cccc(CN)c1)c1ccc(OCc2ccccc2)cc1 | > 99.5 µM
NCc1cccc(NC(=O)[C@H](NC(=O)[C@H]2CCOC2)c2ccc(OCc3ccccc3)cc2)c1 | > 99.5 µM
NCc1cccc(NC(=O)[C@H](NC(=O)c2ccccc2Cl)c2ccc(OCc3ccccc3)cc2)c1 | 45.8 µM
O=C(O)c1cc(Cl)ccc1NS(=O)(=O)c1ccc(-c2cn[nH]c2)cc1 | > 99.5 µM
C[C@]1(C(=O)N[C@H](C(=O)Nc2cccc(CN)c2)c2ccc(OCc3ccccc3)cc2)COc2ccccc2O1 | 52.3 µM
NCc1cccc(NC(=O)[C@@H](NC(=O)OCc2ccccc2)c2ccc(OCc3ncccn3)cc2)c1 | > 99.5 µM
NCc1cccc(NC(=O)[C@H]2[C@H]3CCCCC[C@H]3[C@H]2NC(=O)OCc2ccccc2)c1 | 23.2 µM and 34.2 µM and 10.4 µM and 9.2 µM and 8.71 µM
CCn1c(=O)c(N2CC[C@]3(CNC(=O)O3)C2)nc2ccccc21 | > 99.5 µM
CCn1c(=O)c(N2C[C@H]3CCS(=O)(=O)[C@H]3C2)nc2ccccc21 | > 99.5 µM
NCc1cccc(NC(=O)[C@H](NC(=O)c2ccncc2)c2ccc(OCc3ccccc3)cc2)c1 | > 99.5 µM
O=C(O)c1cc(Cl)ccc1S(=O)(=O)Nc1ccc(-c2cccc(F)c2)cc1 | 27 µM
CC(=O)Nc1cccc(-c2ccc(S(=O)(=O)Nc3ccc(Cl)cc3C(=O)O)cc2)c1 | 23.9 µM
NCc1cccc(N(C(=O)CNC(=O)OCc2ccccc2)c2ccc(OCc3ccccc3)cc2)c1 | > 99.5 µM
NCc1cccc(NC(=O)[C@H](NC(=O)OCc2ccccc2)c2ccc(CO)cc2)c1 | > 99.5 µM
NCc1cccc(NC(=O)[C@H](NS(=O)(=O)c2ccc(Oc3ccccc3Cl)cc2)c2ccc(OCc3ccccc3)cc2)c1 | > 99.5 µM
Cc1ccc([C@H]2[C@H](C)CN2C(=O)c2ccc(C(F)(F)CN)cc2)cc1 | > 99.5 µM
O=C(O)c1ccc(F)c(F)c1NS(=O)(=O)c1ccc(Oc2ccccc2Cl)cc1 | 31.1 µM
CCn1c(=O)c(N2C[C@H](C)C[C@H]2c2ccccc2)nc2ccccc21 | > 99.5 µM
CCn1c(=O)c(N2C[C@@H]3C[C@]3(CO)C2)nc2ccccc21 | > 99.5 µM
CCn1c(=O)c(N2C[C@H](O)C3(CC3)C2)nc2ccccc21 | > 99.5 µM
CCn1c(=O)c(N2C[C@]3(CO)C[C@H]2CO3)nc2ccccc21 | > 99.5 µM
CCc1n[nH]cc1-c1cccc([C@H](NC(=O)OCc2ccccc2)C(=O)Nc2cccc(CN)c2)c1 | > 99.5 µM

SMILES | IC50
CCn1c(=O)c(N2C[C@@H]3[C@H](C2)[C@H]2CC[C@@H]3O2)nc2ccccc21 | > 99.5 µM
COc1ccccc1-c1ccc(S(=O)(=O)Nc2ccc(Cl)cc2C(=O)O)cc1 | 12.8 µM
NCc1cccc(NC(=O)[C@H]2[C@H]3CCC[C@H]3[C@@H]2NC(=O)OCc2ccccc2)c1 | > 99.5 µM
NCc1cccc(NC(=O)C[C@H](NC(=O)OCc2ccccc2)c2ccc(C(F)(F)F)cc2)c1 | 58.1 µM
CCOCC(=O)N[C@H](C(=O)Nc1cccc(CN)c1)c1ccc(OCc2ccccc2)cc1 | > 99.5 µM
CCn1c(=O)c(N2CCC[C@@H]2Cn2cncn2)nc2ccccc21 | > 99.5 µM
O=C(O)c1c(F)cc(F)cc1NS(=O)(=O)c1ccc(Oc2ccccc2Cl)cc1 | 41.5 µM
CCn1c(=O)c(N2CC[C@H](c3nncs3)C2)nc2ccccc21 | > 99.5 µM
NC[C@H]1C[C@@H](NC(=O)c2cc(Cl)ccc2NS(=O)(=O)c2ccc(Oc3ccccc3Cl)cc2)C1 | > 99.5 µM
CN(C)CCNC(=O)[C@H](NC(=O)OCc1ccccc1)c1ccc(OCc2ccccc2)cc1 | > 99.5 µM
NCc1cccc(NC(=O)C[C@H](NC(=O)OCc2ccccc2)C2CCCCC2)c1 | 67.1 µM and 69.7 µM
NCc1cccc(NC(=O)[C@H](NC(=O)Cn2cccn2)c2ccc(OCc3ccccc3)cc2)c1 | > 99.5 µM
O=C(O)c1cc(Cl)ccc1S(=O)(=O)N[C@H]1CCN(Cc2ccccc2)C(=O)C1 | > 99.5 µM
C[C@]1(C(=O)N[C@H](C(=O)Nc2cccc(CN)c2)c2ccc(OCc3ccccc3)cc2)CCCO1 | > 99.5 µM
CCn1c(=O)c(N2CC3(COC3)[C@](F)(CO)C2)nc2ccccc21 | > 99.5 µM
NCc1cccc(NC(=O)c2cc(Cl)ccc2NS(=O)(=O)c2ccc(Oc3ccccc3Cl)cc2)c1 | > 99.5 µM
CCn1c(=O)c(N2C[C@H]3C[C@H]2C(F)(F)C3)nc2ccccc21 | > 99.5 µM
CCn1c(=O)c(N2CC[C@]3(CCSC3)C2)nc2ccccc21 | > 99.5 µM
CCn1c(=O)c(N2CCC[C@@H]2Cc2cccs2)nc2ccccc21 | > 99.5 µM
NCc1cccc(NC(=O)C[C@H](NC(=O)OCc2ccccc2)c2ccc(Br)cc2)c1 | 51.8 µM
CC(=O)N1CCN([C@H]2CC[C@H](NS(=O)(=O)c3ccc(Cl)cc3C(=O)O)CC2)CC1 | > 99.5 µM
CCC1CN(C(=O)c2cc(Cl)ccc2NS(=O)(=O)c2ccc(Oc3ccccc3Cl)cc2)C1 | > 99.5 µM
